How the values were obtained:
[1] = tested on: co-culture injured by oxygen/glucose or oxygen deprivation; experiment: Oxygen/glucose or oxygen deprivation injury in co-culture (LDH release); assay type: cell-based, mouse; conditions: 75 min replacement of O2 with N2; xenon replacing N2
Method: Anoxia was performed on a co-culture by a 75 min replacement of O2 with N2. The xenon and N2 concentrations were changed reciprocally such that their aggregate was 95% of one atmosphere (5% CO2 in either group). After 24 h the culture medium was harvested and assayed for LDH. Data are expressed as the % mean±SD (n=3) of LDH released into the medium over the 24 h period normalised to LDH release when N2 alone is present.
(§1) Dissociated murine cortical cell cultures were prepared using whole cerebral neocortices from fetal mice (14-17 days of gestation). Cortical glial cell cultures were prepared from early postnatal mice. After halting non-neuronal cell division with cytosine arabinoside the surviving cortical neuronal cells were plated onto the glial cell background and co-cultured.

[2] = tested on: cortical neuronal-glial co-culture injured with glutamate; experiment: Glutamate-induced neuronal injury in neuronal-glial co-culture (LDH release); assay type: cell-based, mouse
Method: as §1
15 days after originally harvesting the cortical cells, the co-culture plates were exposed at room temperature to glutamate 10-1,000 μM, in CCS from 10-30 minutes. After carefully washing out with CCS, the cells were incubated for 6-24 hours in a Eagle's minimal essential medium free of glutamate or lactate dehydrogenase (LDH) but supplemented with glucose 25 mM, and NaHCO3 38 mM at 37° C. in humidified CO2 (5%) atmosphere. The degree of injury was determined by measuring the LDH released into the medium. A dose-response curve of glutamate-induced injury is shown in FIG. 11, as described hereinbefore.
75% of one atmosphere of xenon was delivered to the cells during and after exposure to 75 μM glutamate, a concentration which produces a near maximal injury. The degree of injury was determined by measuring the LDH released into the medium (after correcting for “baseline” LDH release). Xenon reduced the injury produced by glutamate by more than 35%; when xenon was continued after glutamate exposure, the injury was further reduced by more than 60%. The results of the protective effect of xenon are illustrated in FIG. 13, as described hereinbefore.

[3] = cited from earlier work
[4] = tested on: humans; experiment: MAC / anaesthetic EC50 in humans; assay type: in vivo; conditions: 37° C.
Method: The gaseous concentration of xenon which prevents a response to a painful stimulus (i.e. MAC) appears to vary among species, being 71% atm in humans (Cullen SC et al, Anesthesiology 1969, 31:305-309), 98% atm in rhesus monkeys (Whitehurst S L et al, J. Neurosurg. Anesthesiol. 1994, 6:275-279) and 161% atm in rats (Koblin D D et al, Anesth. Analg. 1998, 87:419-424). When these values are converted to free aqueous concentrations at 37° C. (Franks N P et al, Br. J. Anaesth. 1993, 71:65-76; Franks N P et al, Anesthesiology, 1996, 84:716-720) using an Ostwald water/gas partition coefficient of 0.0887 (Weathersby P K et al, Undersea Biomed. Res. 1980, 7:277-296), the values obtained are 2.5 mM, 3.4 mM and 5.6 mM for humans, monkeys and rats respectively, with the average value being 3.8 mM. For the experiments described herein, performed at room temperature, the concentration of xenon present in the standard test solution was 3.4 mM. […] This is illustrated with representative traces in FIG. 2.

[5] = tested on: humans; conditions: cited from earlier work
[6] = tested on: rhesus monkeys; conditions: cited from earlier work
[7] = tested on: neurons of arcuate nucleus of hypothalamus; experiment: NMA-induced neuron injury in the arcuate nucleus (neuroprotection in vivo); parameters: species or system Sprague Dawley female adult rats; conditions: 75% Xe + NMA 100 mg/kg s.c.
Method: It can be seen that NMA caused neuronal degeneration and vacuoulated swelling in the neuropil giving a spongiform appearance in the arcuate nucleus (E). The degenerated neuron has a pyknotic nucleus, which look like “bulls' eyes” because of oedematous swelling of the cytoplasmic compartment.
Rats were injected with NMA (100 mg/kg) sc and sacrificed 4 hours later after exposure to air (“NMA”; n=7) or xenon 75% (“75% xenon+NMA”; n=8). (For comparison the effect of MK801, the NMDA antagonist, is also shown). The arcuate nucleus was removed and sectioned and stained with cresyl violet. Control animals (“PS”; n=6) had neither NMA nor xenon administered. Data are reflected as either the mean of three sections/animal (upper) or the sum (lower) of degenerated neurons in both arcuate nuclei.

[8] = tested on: cortical neuronal-glial co-culture injured with NMDA; experiment: NMDA-induced neuronal injury in neuronal-glial co-culture (LDH release); assay type: cell-based, mouse
Method: as §1
15 days after originally harvesting the foetal cortical cells, the co-culture plates were exposed at room temperature to N-methyl,D-aspartate (NMDA), 10-1,000 μM, in a control salt solution (CCS) for 10 minutes. After carefully washing out with CCS, the cells were incubated for 6-24 hours in a Eagle's minimal essential medium free of glutamate or lactate dehydrogenase (LDH) but supplemented with glucose 25 mM, and NaHCO3 38 mM at 37° C. in humidified CO2 (5%) atmosphere. The degree of injury was determined by measuring the LDH released into the medium. A dose-response curve of NMDA-induced injury is shown in FIG. 10, as described hereinbefore.
75% of one atmosphere of xenon was delivered to the cells during and after exposure to a 750 μM NMDA, a concentration which produces a near maximal injury. The degree of injury was determined by measuring the LDH released into the medium (after correcting for “baseline” LDH release). Xenon reduced the injury produced by NMDA by more than 30%; when xenon was continued after NMDA exposure, the injury was further reduced by more than 55%. The results of the protective effect of xenon are illustrated in FIG. 12, as described hereinbefore.

[9] = tested on: rats; conditions: cited from earlier work

[Xe] [xenon]
protection against injury induced by oxygen/glucose or oxygen alone deprivation (LDH release over 24 h) [1]: dose-dependent protective effect
protection against excitotoxicity (LDH release) ([2]; 100 μM glutamate for 10 minutes, low, sub-anaesthetic concentrations of xenon, LDH after 6 hours): Highly significant protection
reduction of the injury produced by glutamate (LDH release) ([2]; 75% of one atmosphere xenon during exposure to 75 μM glutamate): more than 35%
reduction of the injury produced by glutamate (LDH release) ([2]; 75% xenon continued after 75 μM glutamate exposure): more than 60%
Ostwald water/gas partition coefficient ([3]; 37° C.): 0.0887
Bunsen water/gas partition coefficient ([3]; room temperature): 0.0965
MAC converted to free aqueous concentration [4]: 2.5 mM
half maximal effective concentration EC50 as a human anaesthetic ([5]; human): 71 % v/v
gaseous concentration which prevents a response to a painful stimulus (MAC) ([5]; humans): 71 % atm
gaseous concentration which prevents a response to a painful stimulus (MAC) [6]: 98 % atm
NMA-induced neuronal injury (cresyl fast violet histology) [7]: effective in reducing this injury
protection against excitotoxicity (% of LDH released in the absence of xenon) ([8]; 250 μM NMDA for 10 minutes, low (sub-anaesthetic) concentrations of xenon, LDH after 6 hours): Highly significant protection
excitotoxic injury (LDH release, normalised) ([8]; 250 μM NMDA, 75% xenon): greatly reduced
percentage of neuroprotection ([8]; 75% (atm.) xenon, after 6 hours, 10 minute exposure to 250 μM NMDA): 60%
reduction of the injury produced by NMDA (LDH release) ([8]; 75% of one atmosphere xenon during exposure to 750 μM NMDA): more than 30%
reduction of the injury produced by NMDA (LDH release) ([8]; 75% xenon continued after 750 μM NMDA exposure): more than 55%
gaseous concentration which prevents a response to a painful stimulus (MAC) [9]: 161 % atm
